Test results from US6380218B1, “Nicotinamide derivatives” (Pfizer Inc, priority 1997, dated 2002).
Where a name gives a salt, the structure may show the parent alone.

SMILES | melting point [°C]
COc1cccc(Oc2ncccc2C(=O)NCc2ccccc2Cl)c1 [Example 283, N-(2-Chloro-benzyl)-2-(3-methoxy-phenoxy)-nicotinamide] | 71 to 74
CC(=O)c1cccc(Oc2ncccc2C(=O)NCc2ccc([C@H](C)O)cc2)c1 [Example 306, (S)-(−)-2-(3-Acetyl-phenoxy)-N-(4-(1-hydroxy-ethyl)-benzyl)-nicotinamide] | 102 to 104
O=C(NCc1ccccc1Cl)c1cccnc1OCc1cccnc1 [Example 246, N-(2-Chloro-benzyl)-2-(pyridin-3-ylmethoxy)-nicotinamide] | 91 to 93
O=C(c1cc2ccccc2[nH]1)c1cccnc1Oc1ccc(F)cc1 [Example 269, [2-(4-Fluoro-phenoxy)-pyridin-3-yl]-(1H-indol-2-yl)-methanone] | 169 to 170
O=C(Cc1ccccc1)c1cccnc1Oc1ccc(F)cc1 [Example 264, 1-[2-(4-Fluoro-phenoxy)-pyridin-3-yl]-2-phenyl-ethanone] | 81 to 82
O=C(NCc1ccccc1Cl)c1cccnc1Oc1cccnc1 (as salt: HCl) [Example 31, N-(2-Chloro-benzyl)-2-(pyridin-3-yloxy)-nicotinamide] | 174 to 176
CC(C)(O)c1ccc(CC(=O)Nc2cccnc2Oc2cccc(C#N)c2)cc1 [Example 218, N-[2-(3-Cyano-phenoxy)-pyridin-3-yl]-2-[4-(1-hydroxy-1methyl-ethyl)-phenyl]-acetamide] | 97 to 99
O=C1Cc2cc(CNC(=O)c3cccnc3Oc3cccnc3)ccc2N1 [Example 33, N-(2-Oxo-2,3-dihydro-1H-indol-5-ylmethyl)-2-(pyridin-3-yloxy)-nicotinamide] | 109 to 111
C[C@H](NC(=O)c1cccnc1Oc1cccnc1)c1cccs1 (as salt: HCl) [Example 46, (S)(+)-2-(Pyridin-3-yloxy)-N-(1-thiophen-2-yl-ethyl)-nicotinamide] | 196 to 198
O=C(NCc1ccc(Cl)s1)c1cccnc1Oc1cncc(Cl)c1 [Example 51, 2-(5-Chloro-pyridin-3-yloxy)-N-(5-chloro-thiophen-2-ylmethyl)-nicotinamide] | 125 to 127
NC(=O)c1cccc(Oc2ncccc2C(=O)NCc2ccccc2Cl)c1 [Example 289, 2-(3-Carbamoyl-phenoxy)-N-(2-chloro-benzyl)-nicotinamide] | 153 to 155
O=C(NCc1ccccc1Cl)c1cccnc1Oc1cccc(C(F)(F)F)c1 [Example 184, N-(2-Chloro-benzyl)-2-(3-trifluoromethyl-phenoxy)-nicotinamide] | 88 to 90
CC(NC(=O)c1cccnc1Oc1cccnc1)c1ccc(Cl)s1 (stereo not shown) [Example 14, N-[1-(5-Chloro-thiophen-2-yl)-ethyl]-2-(pyridin-3-yloxy)-nicotinamide] | 74 to 76
O=C(NCc1ccc(C(=O)C(F)(F)F)cc1)c1cccnc1Oc1cccnc1 [Example 219, 2-(Pyridin-3-yloxy)-N-(4-trifluoroacetyl-benzyl)-nicotinamide] | 134 to 136
N#Cc1cccc(Oc2ncccc2C(=O)NCc2ccc3c(c2)CC(=O)N3)c1 [Example 112, 2-(3-Cyano-phenoxy)-N-(2-oxo-2,3-dihydro-1H-indol-5-ylmethyl)-nicotinamide] | 197 to 199
COc1cccc(Oc2ncccc2C(=O)NCc2ccc(S(N)(=O)=O)cc2)c1 [Example 200, 2-(3-Methoxy-phenoxy)-N-(4-sulfamoyl-benzyl)-nicotinamide] | 142 to 143
COc1ccc(CNC(=O)c2cccnc2Oc2cccnc2)cc1 [Example 29, N-(4-Methoxy-benzyl)-2-(pyridin-3-yloxy)-nicotinamide] | 62 to 64
CC(=O)c1ccc(CC(=O)Nc2cccnc2Oc2cccnc2)cc1 [Example 186, 2-(4-Acetyl-phenyl)-N-[2-(pyridin-3-yloxy)-pyridin-3-yl]-acetamide] | 110 to 112
CC(=O)c1cccc(Oc2ncccc2NC(=O)Cc2ccc(C(C)(C)O)cc2)c1 [Example 213, N-[2-(3-Acetyl-phenoxy)-pyridin-3-yl]-2-[4-(1-hydroxy-1-methyl-ethyl)-phenyl]-acetamide] | 85 to 87

Now from value to compound:

melting point [°C] | SMILES
107 to 109 | CS(=O)(=O)Nc1ccc(CNC(=O)c2cccnc2Oc2ccc(F)cc2)cc1 [Example 131, 2-(4-Fluoro-phenoxy)-N-(4-methanesulfonylamino-benzyl)-nicotinamide]
118 to 120 | CC(C)(O)c1ccc(CNC(=O)c2cccnc2Oc2ccc3c(c2)OCO3)cc1 [Example 293, 2-(Benzo[1,3]dioxol-5-yloxy)-N-[4-(1-hydroxy-1-methyl-ethyl)-benzyl]-nicotinamide]
134 to 136 | O=C(NCc1sccc1Cl)c1cccnc1Oc1ccc(F)cc1 [Example 69, N-(3-Chloro-thiophen-2-ylmethyl)-2-(4-fluoro-phenoxy)-nicotinamide]
105 to 107 | O=C(NCC1CC1)c1cccnc1Oc1cncc(Cl)c1 [Example 98, 2-(5-Chloro-pyridin-3-yloxy)-N-cyclopropylmethyl-nicotinamide]
110 to 111 | CC(=O)C1CCC(CNC(=O)c2cccnc2Oc2ccc(F)cc2)CC1 (stereo not shown) [Example 229, N-(4-Acetyl-cyclohexylmethyl)-2-(4-fluoro-phenoxy)-nicotinamide]
85 to 87 | CN(C)c1cccc(Oc2ncccc2C(=O)NCc2ccccc2Cl)c1 (as salt: HCl) [Example 118, N-(2-Chloro-benzyl)-2-(3-dimethylamino-phenoxy)-nicotinamide]
121 to 123 | CC(C)(O)c1ccc(CNC(=O)c2cccnc2Oc2cccc(C#N)c2)c(Cl)c1 [Example 116, N-[2-Chloro-4-(1-hydroxy-1-methyl-ethyl)-benzyl]-2-(3-cyano-phenoxy)-nicotinamide]
78 to 80 | CC1(c2ccc(CNC(=O)c3cccnc3Oc3ccc(F)cc3)cc2)OCCO1 [Example 94, 2-(4-Fluoro-phenoxy)-N-[4-(2-methyl-[1,3]dioxolan-2-yl)-benzyl]-nicotinamide]
122 to 124 | O=C(NCc1ccccc1Cl)c1cccnc1Oc1ccc(F)cc1F [Example 10, N-(2-Chloro-benzyl)-2-(2,4-difluoro-phenoxy)-nicotinamide]
106 to 108 | CC(C)(O)c1ccc(CNC(=O)c2cccnc2Oc2ccc(F)cc2)cc1
92 to 94 | CC(C)(O)[C@H]1CC[C@H](CNC(=O)c2cccnc2Oc2ccc(F)cc2F)CC1 [Example 239, trans-2-(2,4-Difluoro-phenoxy)-N-[4-(1-hydroxy-1-methyl-ethyl)-cyclohexylmethyl]-nicotinamide]
59 to 61 | C[C@H](NC(=O)c1cccnc1Oc1ccc(F)cc1)c1cccs1 [Example 6, (S)(−)2-(4-Fluoro-phenoxy)-N-(1-thiophen-2-yl-ethyl)-nicotinamide]
115 to 117 | Cc1ccsc1CNC(=O)c1cccnc1Oc1cncc(Cl)c1 [Example 54, 2-(5-Chloro-pyridin-3-yloxy)-N-(3-methyl-thiophen-2-ylmethyl)-nicotinamide]
128 to 130 | Cc1noc2ccc(Oc3ncccc3C(=O)NCc3ccc(C(C)(C)O)cc3)cc12 [Example 316, N-(4-(1-Hydroxy-1-methyl-ethyl)-benzyl)-2-(3-methyl-benzo(d)-isoxazol-5-yloxy)-nicotinamide]
132 to 134 | O=C(NCc1sc(Cl)cc1Cl)c1cccnc1Oc1ccc(F)cc1 [Example 97, N-(3,5-Dichloro-thiophen-2ylmethyl)-2-(4-fluoro-phenoxy)-nicotinamide]
118 to 120 | O=C(NCc1ccccc1Cl)c1cccnc1Oc1ccc(F)cc1 [Example 9, N-(2-Chloro-benzyl)-2-(4-fluoro-phenoxy)-nicotinamide]
110 to 112 | O=C(NCC1CCC(O)CC1)c1cccnc1Oc1ccc(F)cc1 (stereo not shown) [Example 288, 2-(4-Fluoro-phenoxy)-N-(4-hydroxy-cyclohexylmethyl)-nicotinamide]
90 to 92 | O=C(NCc1ccccc1F)c1cccnc1Oc1cccnc1 [Example 26, N-(2-Fluoro-benzyl)-2-(pyridin-3-yloxy)-nicotinamide]
91 to 93 | O=C(NCc1ccc(Cl)s1)c1cccnc1Oc1ccc(F)cc1 [Example 61, N-(5-Chloro-thiophen-2-ylmethyl)-2-(4-fluoro-phenoxy)-nicotinamide]
88 to 90 | CC(C)(O)c1ccc(CNC(=O)c2cccnc2Oc2ccc(F)cc2)o1 [Example 79, 2-(4-Fluoro-phenoxy)-N-[5-(1-hydroxy-1-methyl-ethyl)-furan-2-ylmethyl]-nicotinamide]
157 to 159 | O=C1CCC(CNC(=O)c2cccnc2Oc2ccc(F)cc2)CC1 [Example 286, 2-(4-Fluoro-phenoxy)-N-(4-oxo-cyclohexylmethyl)-nicotinamide]
128 to 130 | CC(=O)Nc1ccc(CNC(=O)c2cccnc2Oc2ccc(F)cc2)cc1 [Example 124, N-(4-Acetylamino-benzyl)-2-(4-fluoro-phenoxy)-nicotinamide]
128 to 129 | O=C(NCc1ccc(N2CCC2)cc1)c1cccnc1Oc1ccc(F)cc1 [Example 87, N-(4-Azetidin-1-yl-benzyl)-2-(4-fluoro-phenoxy)-nicotinamide]
74 to 76 | O=C(NCc1ccc(C2(O)CCC2)cc1)c1cccnc1Oc1ccc(F)c(F)c1 [Example 232, 2-(3,4-Difluoro-phenoxy)-N-[4-(1-hydroxy-cyclobutyl)-benzyl]-nicotinamide]
99 to 101 | O=C(NCc1cc(Cl)cs1)c1cccnc1Oc1ccc(F)cc1 [Example 62, N-(4-Chloro-thiophen-2-ylmethyl)-2-(4-fluoro-phenoxy)-nicotinamide]
68 to 70 | CC(C)(O)c1ccc(CNC(=O)c2cccnc2Oc2cc(F)cc(F)c2)cc1 [Example 238, 2-(3,5-Difluoro-phenoxy)-N-[4-(1-hydroxy-1-methyl-ethyl)-benzyl]-nicotinamide]
79 to 81 | CC(C)(O)c1ccc(CNC(=O)c2cccnc2Oc2cccnc2)cc1 [Example 36, N-[4-(1-Hydroxy-1-methyl-ethyl)-benzyl]-2-(pyridin-3-yloxy)-nicotinamide]
